For one experiment, the system named is lipid oxidising abzymes. In words: ELISA based abzyme assay. It counts as biochemical, human. To be noted: in vitro. The method, then: ELISA assays were performed using Medac materials and reagents, which were used in accordance with the manufacturers instructions.
Briefly, serum samples from patients were treated as described above. 50 μl of sample diluent was pipetted into microtitre well A1 as blank, and 50 μl of the negative control, Positive Control and the diluted patients' samples were pipetted into other microtitre wells. The microplate wells were incubated for 60 min (±5 min) at 37 °C (±1° C.) in a humid chamber and then washed three times with 200 μl wash buffer per well. 50 μl of Conjugate was then added to each well and the microplate wells incubated again for 60 min (±5 min) at 37 °C (±1° C.) in a humid chamber and then washed. 50 μl of TMB-Substrate, was added to each well and the microplate wells incubated for 30 min (±2 min) at 37 °C (±1° C.) in a humid chamber. The reaction was stopped by adding 100 μl of Stop Solution, to each well.
Photometric reading was performed at 450 nm (ref. 620-650 nm) within 15 min after adding the Stop Solution.
To calculate the results, the OD value of the blank (well A1) was subtracted from all other OD values. Preferably, the OD value of the blank was <0.150, the mean OD value of the Negative Control was <0.100 and the OD value of the Positive Control was >0.800. Cut-off mean OD value of the Negative Control+0.380. Grey zone Cut-off±10%
On the technique in general: An ELISA detects its analyte on a solid surface through an enzyme-linked reagent.

In experiment [1] the test system is lipid oxidising abzymes (atheroma extracted IgG). In words: Testing of anti-abzyme activity (lipid oxidation, MDA/thiobarbituric acid assay). Type of experiment: biochemical, human. The method, then:
Antibodies were extracted from advanced atherosclerotic lesions of human aorta retrieved from two male patients […], during bypass surgery of an abdominal aortal stenosis at the Centre of Cardio-Vascular Surgery of the Medical University of Rostov-na-Donu, Russian Federation. After recovery these samples were immediately put in 30% w/v solution of NaCl and stored at 0-4° C. for 1 month prior to examination. […]
The antibodies were extracted and analysed separately from the lesions of the two pieces of the abdominal aorta obtained from the […] different patients. […]
Samples of the human serum were incubated with different concentrations of lycopene, lycopene/lactoprotein conjugate or alone (control samples) with the presence of atheroma extracted IgG for 16 hours at 37° C. at pH 5.6. The level of lipid peroxidation was assessed as a level of MDA concentration which was measured by spectrophotometric method [Draper, H. H. et al Free Radic. […] Briefly, the level of abzymes in a sample was determined as follows: Samples of sera were diluted 1:1 by 0.05M acetate buffer pH 4.0 to make the final pH of these samples between 5.6-5.8. […] The supernatants were collected and their absorption measured at λ 525 nm to determine the concentration of malondialdehydes (MDA), which are products of lipid peroxidation.

Each structure is given as a SMILES string.

As for `CC(C)=CCC/C(C)=C/C=C/C(C)=C/C=C/C(C)=C/C=C/C=C(C)/C=C/C=C(C)/C=C/C=C(\C)CCC=C(C)C` [Lycopene], the abzyme inhibition activity result in the experiment with lipid oxidising abzymes was “ineffective”; in experiment [1] (lipid oxidation assay, in vitro), “ineffective”. Further, the “Maximum inhibition in vitro” value in experiment [1] (abzyme inhibition) was 0%.

The values are drawn from US20080153921A1, “Lycopene Formulations For the Treatment of Atherosclerotic Conditions” (CAMBRIDGE, priority 2005, published 2008).
